Assay results: patent publication US6660718B1, “3-modified leucomycin derivatives” (Meiji Seika Kaisha, Ltd., priority 1999, dated 2003)
≈ marks a conversion by molar mass, not a printed value.

Tests used:
[1] = system: Haemophilus influenzae 9334; test: Antibacterial activity test (agar dilution MIC); assay type: cell-based; conditions: agar plates, 37° C., about 20 hours
Method: (§1) In vitro antibacterial activities of the compounds of Examples 3, 5, 20, 23, 25 and 48 were determined as follows by referring to the standard method of the Japanese Society of Chemotherapy (Chemotherapy, 29, pp.76-79, 1981). For comparison, antibacterial activities of rokitamycin (RKM), leucomycin-A7 (LM-A7) and the compound described in U.S. Pat. No. 5,407,918, Example 7 were determined in the same manner.
(§2) For a solution of each test drug dissolved in methanol at 5000 μg/ml, a series of 2-fold dilutions were prepared. 200 μl of each solution of the test drug was added in a petri dish, added with 10 ml of agar medium for susceptibility measurement supplemented with 5% of sterile horse defibrinated blood, 15 μg/ml of β-nicotinamide adenine dinucleotide and 5 μg/ml of Hemin, and then mixed to prepare agar plates containing the test drug. A given volume of a culture broth for susceptibility measurement, which was prepared to contain a given cell numbers of bacteria to be tested, was inoculated to the agar plates containing the test drug by using a micro planter (Sakuma Seisakusho). After the inoculation, cultivation was carried out at 37° C. for about 20 hours. After the culture, presence or absence of the growth of the test bacteria on the plates was observed by visual inspection, and the minimum concentration at which no growth was observed was determined as minimum inhibitory concentration (MIC) of each test drug for each of the test bacteria The results are shown in Tables 1-1, 1-2 and 1-3.

[2] = system: Streptococcus pneumoniae PRC-53 (mefE efflux); test: Antibacterial activity test (agar dilution MIC); assay type: cell-based; conditions: for Minimum inhibitory concentration (MIC): Streptococcus pneumoniae PRC-53 (mefE efflux), agar plates, 37° C., about 20 hours
Method: as §1, §2

[3] = system: Staphylococcus aureus 209P JC-1; test: Antibacterial activity test (agar dilution MIC); assay type: cell-based; conditions: agar plates, 37° C., about 20 hours
Method: as §1, §2

[4] = system: Streptococcus pneumoniae DP1 TypeI; test: Antibacterial activity test (agar dilution MIC); assay type: cell-based; conditions: agar plates, 37° C., about 20 hours
Method: as §1, §2

[5] = system: Staphylococcus aureus MS15027 (ermC methylase); test: Antibacterial activity test (agar dilution MIC); assay type: cell-based; conditions: for Minimum inhibitory concentration (MIC): Staphylococcus aureus MS15027 (ermC methylase), agar plates, 37° C., about 20 hours
Method: as §1, §2

[6] = system: Streptococcus pyogenes Cook; test: Antibacterial activity test (agar dilution MIC); assay type: cell-based; conditions: agar plates, 37° C., about 20 hours
Method: as §1, §2

[7] = system: Micrococcus luteus ATCC9341; test: Antibacterial activity test (agar dilution MIC); assay type: cell-based; conditions: agar plates, 37° C., about 20 hours
Method: as §1, §2

[8] = system: Moraxella catarrhalis W-0500; test: Antibacterial activity test (agar dilution MIC); assay type: cell-based; conditions: 37° C., about 20 hours; for Minimum inhibitory concentration (MIC): agar plates
Method: as §1, §2

Gram-positive bacteria = test: Antibacterial activity test, overall comparison; assay type: cell-based; conditions: for enhancement of the antibacterial activity compared to RKM and LM-A7: comparison of MIC values of Tables 1-1 and 1-2
Method: as §1, §2

[9] = assay type: in vitro ADME; conditions: 4 h
Method: Stability of the compound of Example 3 in plasma was studied as follows. Stability of RKM in plasma was also studied in the same manner for comparison. Blood was collected from rat ventral aorta and centrifuged (3000 rpm, 15 minutes) to separate plasma. 10 μl of a solution of a test drug dissolved in methanol at a concentration of 1600 μg/ml was added to 190 μl of the rat plasma and reacted at 37° C. At the start of the reaction and after 1, 2 and 4 hours, a part of the reaction mixture was collected and added with a given volume of an acetonitrile solution to prepare a bioassay sample for measurement of test medicament concentration. […] After the incubation, the diameter of the ring by growth inhibition of Micrococcus luteus ATCC9341 observed around the paper disc was measured by using a digital caliper. […] Based on a calibration curve obtained from concentrations of the standard solutions and diameters of growth inhibition rings, concentrations of the test drug in the samples at several time points were calculated, and then, by using the calculated remaining concentrations of the test drug in the samples at the time points, ratios of activity (%) based on the concentration at the start of the reaction, which was taken as 100%, were calculated. […]

[10] = system: Streptococcus pneumoniae PRC-91 (ermAM methylase); test: Antibacterial activity test (agar dilution MIC); assay type: cell-based; conditions: agar plates, 37° C., about 20 hours
Method: as §1, §2

[11] = system: Streptococcus pneumoniae TH-662 (ermAM methylase); test: Antibacterial activity test (agar dilution MIC); assay type: cell-based; conditions: agar plates, 37° C., about 20 hours
Method: as §1, §2

[12] = system: Streptococcus pneumoniae IP692; test: Antibacterial activity test (agar dilution MIC); assay type: cell-based; conditions: agar plates, 37° C., about 20 hours
Method: as §1, §2

[13] = system: resistant strains of Streptococcus pneumoniae; test: Antibacterial activity test, resistant strains, comparison; assay type: cell-based; conditions: comparison of MIC values of Table 1-3; reversed versus natural configuration at 3-position
Method: as §1
as §2, with “A given volume of a culture broth for susceptibility measurement, which was prepared to contain a given cell numbers of bacteria to be tested, was inoculated to the agar plates containing the test drug by using a micro planter (Sakuma Seisakusho). After the inoculation, cultivation was carried out at 37° C. for about 20 hours.” left out

[14] = read-out: Minimum inhibitory concentration (MIC)

## CCC(=O)OC1C(C)OC(OC2C(C)OC(OC3C(CC=O)CC(C)C(O)C=CC=CCC(C)OC(=O)CC(OC)C3OC)C(O)C2N(C)C)CC1(C)O (centres unmarked) [Example 23, 3-O-Methylleucomycin A7]
[1]
  Minimum inhibitory concentration (MIC): 1.56 µg/mL (≈ 2.02 µM)
[2]
  Minimum inhibitory concentration (MIC): 0.10 µg/mL (≈ 0.13 µM)
[3]
  Minimum inhibitory concentration (MIC): 0.20 µg/mL (≈ 0.259 µM)
[4]
  Minimum inhibitory concentration (MIC): 0.10 µg/mL (≈ 0.13 µM)
[5]
  Minimum inhibitory concentration (MIC): 0.20 µg/mL (≈ 0.259 µM)
[6]
  Minimum inhibitory concentration (MIC): 0.10 µg/mL (≈ 0.13 µM)
[7]
  Minimum inhibitory concentration (MIC): 0.05 µg/mL (≈ 0.0648 µM)
[8]
  Minimum inhibitory concentration (MIC): 0.78 µg/mL (≈ 1.01 µM)
Gram-positive bacteria
  enhancement of the antibacterial activity compared to RKM and LM-A7: two-fold

## CCCC(=O)OC1C(C)OC(OC2C(C)OC(OC3C(CC=O)CC(C)C(O)C=CC=CCC(C)OC(=O)CC(OC)C3OC)C(O)C2N(C)C)CC1(C)OC(=O)CC (centres unmarked) [Example 3, 3-O-Methylrokitamycin]
[9]
  Stability in rat plasma (remaining antibacterial activity with time): more stable in the rat plasma than RKM
[1]
  Minimum inhibitory concentration (MIC): 3.13 µg/mL (≈ 3.72 µM)
[2]
  Minimum inhibitory concentration (MIC): 0.10 µg/mL (≈ 0.119 µM)
[3]
  Minimum inhibitory concentration (MIC): 0.10 µg/mL (≈ 0.119 µM)
[4]
  Minimum inhibitory concentration (MIC): 0.05 µg/mL (≈ 0.0594 µM)
[5]
  Minimum inhibitory concentration (MIC): 0.20 µg/mL (≈ 0.238 µM)
[6]
  Minimum inhibitory concentration (MIC): 0.025 µg/mL (≈ 0.0297 µM)
[7]
  Minimum inhibitory concentration (MIC): 0.025 µg/mL (≈ 0.0297 µM)
[8]
  Minimum inhibitory concentration (MIC): 0.20 µg/mL (≈ 0.238 µM)
Gram-positive bacteria
  enhancement of the antibacterial activity compared to RKM and LM-A7: two-fold

## CCC(=O)O[C@H]1[C@H](C)O[C@@H](O[C@H]2[C@H](N(C)C)[C@@H](O)[C@H](O[C@H]3[C@@H](CC=O)C[C@@H](C)[C@@H](O)/C=C/C=C/C[C@@H](C)OC(=O)C[C@@H](O)[C@@H]3OC)O[C@@H]2C)C[C@@]1(C)O [LM-A7, leucomycin-A7, reference compound]
[1]
  Minimum inhibitory concentration (MIC): 1.56 µg/mL (≈ 2.06 µM)
[2]
  Minimum inhibitory concentration (MIC): 0.20 µg/mL (≈ 0.264 µM)
[3]
  Minimum inhibitory concentration (MIC): 0.39 µg/mL (≈ 0.515 µM)
[4]
  Minimum inhibitory concentration (MIC): 0.20 µg/mL (≈ 0.264 µM)
[5]
  Minimum inhibitory concentration (MIC): 0.39 µg/mL (≈ 0.515 µM)
[10]
  Minimum inhibitory concentration (MIC): >100 µg/mL
[6]
  Minimum inhibitory concentration (MIC): 0.10 µg/mL (≈ 0.132 µM)
[11]
  Minimum inhibitory concentration (MIC): >100 µg/mL
[7]
  Minimum inhibitory concentration (MIC): 0.10 µg/mL (≈ 0.132 µM)
[8]
  Minimum inhibitory concentration (MIC): 0.78 µg/mL (≈ 1.03 µM)
[12]
  Minimum inhibitory concentration (MIC): 0.39 µg/mL (≈ 0.515 µM)

## C=CCOC1CC(=O)OC(C)CC=CC=CC(O)C(C)CC(CC=O)C(OC2OC(C)C(OC3CC(C)(OC(=O)CC)C(OC(=O)CCC)C(C)O3)C(N(C)C)C2O)C1OC (centres unmarked) [Example 5, 3-O-Allylrokitamycin]
[1]
  Minimum inhibitory concentration (MIC): 6.25 µg/mL (≈ 7.2 µM)
[2]
  Minimum inhibitory concentration (MIC): 0.20 µg/mL (≈ 0.23 µM)
[3]
  Minimum inhibitory concentration (MIC): 0.20 µg/mL (≈ 0.23 µM)
[4]
  Minimum inhibitory concentration (MIC): 0.20 µg/mL (≈ 0.23 µM)
[5]
  Minimum inhibitory concentration (MIC): 0.39 µg/mL (≈ 0.449 µM)
[6]
  Minimum inhibitory concentration (MIC): 0.10 µg/mL (≈ 0.115 µM)
[7]
  Minimum inhibitory concentration (MIC): 0.10 µg/mL (≈ 0.115 µM)
[8]
  Minimum inhibitory concentration (MIC): 0.39 µg/mL (≈ 0.449 µM)

## CCCC(=O)O[C@H]1[C@H](C)O[C@@H](O[C@H]2[C@H](N(C)C)[C@@H](O)[C@H](O[C@H]3[C@@H](CC=O)C[C@@H](C)[C@@H](O)/C=C/C=C/C[C@@H](C)OC(=O)C[C@@H](O)[C@@H]3OC)O[C@@H]2C)C[C@@]1(C)OC(=O)CC [RKM, rokitamycin, reference compound]
[1]; [14]
  MIC: 1.56 µg/mL (≈ 1.88 µM)
[2]; Streptococcus pneumoniae, 20 h, read-out: Minimum inhibitory concentration (MIC)
  MIC: 0.2 µg/mL (≈ 0.242 µM)
[3]; [14]
  MIC: 0.2 µg/mL (≈ 0.242 µM)
[4]; DP1TYPEI, read-out: Minimum inhibitory concentration (MIC)
  MIC: 0.1 µg/mL (≈ 0.121 µM)
[5]; Staphylococcus aureus, 20 h, read-out: Minimum inhibitory concentration (MIC)
  MIC: 0.39 µg/mL (≈ 0.471 µM)
[6]; [14]
  MIC: 0.05 µg/mL (≈ 0.0604 µM)
[7]; [14]
  MIC: 0.05 µg/mL (≈ 0.0604 µM)
[8]; W0500, agar plates, read-out: Minimum inhibitory concentration (MIC)
  MIC: 0.2 µg/mL (≈ 0.242 µM)

## COC1CC(=O)OC(C)CC=CC=CC(O)C(C)CC(CC=O)C(OC2OC(C)C(OC3CC(C)(OC)C(OCCC(C)C)C(C)O3)C(N(C)C)C2O)C1OC (centres unmarked) [Example 20, 4″-O-Isoamyl-3,3″-di-O-methylleucomycin V]
[1]
  Minimum inhibitory concentration (MIC): 1.56 µg/mL (≈ 1.95 µM)
[2]
  Minimum inhibitory concentration (MIC): 0.10 µg/mL (≈ 0.125 µM)
[3]
  Minimum inhibitory concentration (MIC): 0.20 µg/mL (≈ 0.25 µM)
[4]
  Minimum inhibitory concentration (MIC): 0.10 µg/mL (≈ 0.125 µM)
[5]
  Minimum inhibitory concentration (MIC): 0.39 µg/mL (≈ 0.487 µM)
[6]
  Minimum inhibitory concentration (MIC): 0.10 µg/mL (≈ 0.125 µM)
[7]
  Minimum inhibitory concentration (MIC): 0.05 µg/mL (≈ 0.0625 µM)
[8]
  Minimum inhibitory concentration (MIC): 0.39 µg/mL (≈ 0.487 µM)
Gram-positive bacteria; comparison of MIC values of Table 1-2
  antibacterial activity compared with the compound described in Example 7 of U.S. Pat. No. 5,407,918: almost the same antibacterial activity

## CCC(=O)OC1C(C)OC(OC2C(C)OC(OC3C(CC=O)CC(C)C(O)C=CC=CCC(C)OC(=O)CC(OC(=O)c4ccccc4)C3OC)C(O)C2N(C)C)CC1(C)O (stereo not drawn) [Example 48, 3-Epi-3-O-benzoylleucomycin A7]
[1]
  Minimum inhibitory concentration (MIC): 6.25 µg/mL (≈ 7.25 µM)
[2]
  Minimum inhibitory concentration (MIC): 0.20 µg/mL (≈ 0.232 µM)
[3]
  Minimum inhibitory concentration (MIC): 0.39 µg/mL (≈ 0.452 µM)
[5]
  Minimum inhibitory concentration (MIC): 0.78 µg/mL (≈ 0.905 µM)
[10]
  Minimum inhibitory concentration (MIC): 25 µg/mL (≈ 29 µM)
[11]
  Minimum inhibitory concentration (MIC): 25 µg/mL (≈ 29 µM)
[8]
  Minimum inhibitory concentration (MIC): 0.78 µg/mL (≈ 0.905 µM)
[12]
  Minimum inhibitory concentration (MIC): 0.20 µg/mL (≈ 0.232 µM)
[13]
  antibacterial activity against the resistant strains of Streptococcus pneumoniae, compared with Example 25: improvement in antibacterial activity

## CCC(=O)OC1C(C)OC(OC2C(C)OC(OC3C(CC=O)CC(C)C(O)C=CC=CCC(C)OC(=O)CC(OC(=O)c4ccccc4)C3OC)C(O)C2N(C)C)CC1(C)O (centres unmarked) [Example 25, 3-O-Benzoylleucomycin A7]
[1]
  Minimum inhibitory concentration (MIC): 6.25 µg/mL (≈ 7.25 µM)
[2]
  Minimum inhibitory concentration (MIC): 0.39 µg/mL (≈ 0.452 µM)
[3]
  Minimum inhibitory concentration (MIC): 0.39 µg/mL (≈ 0.452 µM)
[10]
  Minimum inhibitory concentration (MIC): >100 µg/mL
[11]
  Minimum inhibitory concentration (MIC): >100 µg/mL
[8]
  Minimum inhibitory concentration (MIC): 1.56 µg/mL (≈ 1.81 µM)
[12]
  Minimum inhibitory concentration (MIC): 0.39 µg/mL (≈ 0.452 µM)
